Here are results for 13 molecules from patent US11713338B2, “Cyclic peptides multimers targeting α-4-β-7 integrin” (priority 2016, dated 2023).

Like-named read-outs stand apart in the source and are kept apart here.

In the experiment the target is T1, integrin α4β7 (RPMI8866 human cells adhering to MAdCAM-1) (Homo sapiens, UniProt P13612+P26010).
T1 construct: RMP18866 cells, which express integrin α4β7; host or cells: RPMI8866
T1 sequence (P13612 34-1032): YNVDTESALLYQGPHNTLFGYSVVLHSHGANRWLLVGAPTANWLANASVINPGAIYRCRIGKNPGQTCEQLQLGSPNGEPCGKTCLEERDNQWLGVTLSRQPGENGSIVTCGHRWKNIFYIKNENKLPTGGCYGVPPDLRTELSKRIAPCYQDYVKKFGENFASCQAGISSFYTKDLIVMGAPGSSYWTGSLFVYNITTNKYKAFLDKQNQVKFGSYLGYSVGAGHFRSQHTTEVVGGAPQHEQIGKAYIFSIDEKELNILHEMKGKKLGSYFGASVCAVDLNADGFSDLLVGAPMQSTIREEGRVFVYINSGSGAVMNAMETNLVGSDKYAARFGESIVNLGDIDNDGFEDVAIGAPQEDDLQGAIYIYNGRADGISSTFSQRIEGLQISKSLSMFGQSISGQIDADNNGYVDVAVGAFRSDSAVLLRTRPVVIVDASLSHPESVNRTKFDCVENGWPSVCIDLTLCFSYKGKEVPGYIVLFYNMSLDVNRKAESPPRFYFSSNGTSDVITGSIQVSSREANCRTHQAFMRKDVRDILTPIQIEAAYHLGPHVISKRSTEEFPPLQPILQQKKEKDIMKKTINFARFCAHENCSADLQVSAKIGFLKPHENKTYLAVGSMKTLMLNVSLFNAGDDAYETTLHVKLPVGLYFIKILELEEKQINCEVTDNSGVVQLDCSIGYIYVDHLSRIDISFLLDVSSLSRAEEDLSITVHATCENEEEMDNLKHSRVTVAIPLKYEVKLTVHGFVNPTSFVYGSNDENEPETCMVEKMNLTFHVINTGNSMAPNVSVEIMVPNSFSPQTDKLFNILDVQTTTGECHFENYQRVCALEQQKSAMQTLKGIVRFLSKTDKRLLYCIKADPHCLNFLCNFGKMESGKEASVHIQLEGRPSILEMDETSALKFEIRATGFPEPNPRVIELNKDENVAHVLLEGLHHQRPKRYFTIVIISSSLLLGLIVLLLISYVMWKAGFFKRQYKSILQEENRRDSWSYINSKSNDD
T1 sequence (P26010 20-798): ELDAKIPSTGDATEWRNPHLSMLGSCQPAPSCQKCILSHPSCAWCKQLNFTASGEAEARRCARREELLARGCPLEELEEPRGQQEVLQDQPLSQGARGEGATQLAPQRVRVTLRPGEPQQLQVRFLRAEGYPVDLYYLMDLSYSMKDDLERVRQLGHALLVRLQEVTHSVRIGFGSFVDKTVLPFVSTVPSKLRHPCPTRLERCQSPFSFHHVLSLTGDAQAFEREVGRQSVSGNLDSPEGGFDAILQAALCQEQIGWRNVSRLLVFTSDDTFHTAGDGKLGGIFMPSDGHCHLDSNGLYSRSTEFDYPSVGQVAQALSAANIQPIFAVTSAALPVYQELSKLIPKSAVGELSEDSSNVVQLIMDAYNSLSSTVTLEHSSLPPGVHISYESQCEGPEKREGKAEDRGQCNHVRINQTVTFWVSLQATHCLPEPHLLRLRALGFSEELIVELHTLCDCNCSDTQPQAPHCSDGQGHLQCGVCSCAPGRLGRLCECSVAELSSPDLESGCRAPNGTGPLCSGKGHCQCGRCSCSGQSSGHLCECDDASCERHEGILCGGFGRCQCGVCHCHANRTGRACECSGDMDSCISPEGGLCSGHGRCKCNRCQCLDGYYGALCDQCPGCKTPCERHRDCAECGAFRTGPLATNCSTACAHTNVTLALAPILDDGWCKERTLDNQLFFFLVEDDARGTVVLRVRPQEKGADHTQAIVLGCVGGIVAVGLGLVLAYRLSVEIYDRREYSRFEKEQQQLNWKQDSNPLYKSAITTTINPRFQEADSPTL
Put plainly: Integrin α4β7-MAdCAM cell adhesion assay (RPMI8866 cells). The format is cell-based. The procedure, abridged:
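RPMI8866 cells were loaded with […] calcein in PBS for 30 min at 37° C. After plate washes with PBS, fluorescence of adherent cells was read, and no-cell control wells were subtracted from each test well to build the dose response.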

The mark [1] stands for this setting: RPMI8866 cells adhering to MAdCAM, read-out: RPMI8866 Adhesion α4β7/MAdCAM IC50.

On to `CC(C)C[C@@H]1NC(=O)c2ccc(-c3ccc(N4CCN(C(=O)COCC(=O)N5CCN(c6ccc(-c7ccc8cc7CNC(=O)[C@@H]7CCCN7[C@H](C(=O)NC(C)(C)C)[C@H](C)NC(=O)[C@H]([C@@H](C)O)NC(=O)[C@H](CC(=O)O)NC(=O)[C@H](CC(C)C)NC8=O)cc6)CC5)CC4)cc3)c(c2)CNC(=O)[C@@H]2CCCN2[C@H](C(=O)NC(C)(C)C)[C@H](C)NC(=O)[C@H]([C@@H](C)O)NC(=O)[C@H](CC(=O)O)NC1=O` [Compound 390], for which the IC50 under setting [1] was 13 nM.
Turning to `CC(C)C[C@@H]1NC(=O)c2ccc(-c3ccc(N4CCN(C(=O)CCCCCCCCCCC(=O)N5CCN(c6ccc(-c7ccc8cc7CNC(=O)[C@@H]7CCCN7[C@H](C(=O)NC(C)(C)C)[C@H](C)NC(=O)[C@H]([C@@H](C)O)NC(=O)[C@H](CC(=O)O)NC(=O)[C@H](CC(C)C)NC8=O)cc6)CC5)CC4)cc3)c(c2)CNC(=O)[C@@H]2CCCN2[C@H](C(=O)NC(C)(C)C)[C@H](C)NC(=O)[C@H]([C@@H](C)O)NC(=O)[C@H](CC(=O)O)NC1=O` [Compound 392], the IC50 under setting [1] was determined as 28 nM.
As to `CC(C)C[C@@H]1NC(=O)C[C@H](CCCCN)N(C)C(=O)[C@H](CCCCN)NC(=O)[C@@H]2CCCN2[C@H](C(=O)NC(C)(C)C)[C@H](C)NC(=O)[C@H]([C@@H](C)O)NC(=O)[C@H](CC(=O)O)NC1=O` [Compound 456], for the setting “RPMI8866 cells, read-out: IC50 in the RPMI8866 cell adhesion assay”, the IC50 was found to be 199 nM.
As for `CC(C)C[C@@H]1NC(=O)c2ccc(-c3ccc(N4CCN(C(=O)[C@H]5CCC[C@H]5C(=O)N5CCN(c6ccc(-c7ccc8cc7CNC(=O)[C@@H]7CCCN7[C@H](C(=O)NC(C)(C)C)[C@H](C)NC(=O)[C@H]([C@@H](C)O)NC(=O)[C@H](CC(=O)O)NC(=O)[C@H](CC(C)C)NC8=O)cc6)CC5)CC4)cc3)c(c2)CNC(=O)[C@@H]2CCCN2[C@H](C(=O)NC(C)(C)C)[C@H](C)NC(=O)[C@H]([C@@H](C)O)NC(=O)[C@H](CC(=O)O)NC1=O` [Compound 458], the IC50 under setting [1] came out at 42 nM.
Turning to `CC(C)C[C@@H]1NC(=O)c2ccc(-c3ccc(N4CCN(C(=O)C56CC7CC(C5)CC(C(=O)N5CCN(c8ccc(-c9ccc%10cc9CNC(=O)[C@@H]9CCCN9[C@H](C(=O)NC(C)(C)C)[C@H](C)NC(=O)[C@H]([C@@H](C)O)NC(=O)[C@H](CC(=O)O)NC(=O)[C@H](CC(C)C)NC%10=O)cc8)CC5)(C7)C6)CC4)cc3)c(c2)CNC(=O)[C@@H]2CCCN2[C@H](C(=O)NC(C)(C)C)[C@H](C)NC(=O)[C@H]([C@@H](C)O)NC(=O)[C@H](CC(=O)O)NC1=O` [Compound 460], the IC50 under setting [1] came out at 62 nM.
On the same count and under the same terms, as for `CC(C)C[C@@H]1NC(=O)c2ccc(-c3ccc(N4CCN(C(=O)C5(C(=O)N6CCN(c7ccc(-c8ccc9cc8CNC(=O)[C@@H]8CCCN8[C@H](C(=O)NC(C)(C)C)[C@H](C)NC(=O)[C@H]([C@@H](C)O)NC(=O)[C@H](CC(=O)O)NC(=O)[C@H](CC(C)C)NC9=O)cc7)CC6)Cc6ccccc6C5)CC4)cc3)c(c2)CNC(=O)[C@@H]2CCCN2[C@H](C(=O)NC(C)(C)C)[C@H](C)NC(=O)[C@H]([C@@H](C)O)NC(=O)[C@H](CC(=O)O)NC1=O` [Compound 461], the figure is 39 nM; as for `CC(C)C[C@@H]1NC(=O)c2ccc(-c3ccc(N4CCN(C(=O)c5ccc(-c6cccc(C(=O)N7CCN(c8ccc(-c9ccc%10cc9CNC(=O)[C@@H]9CCCN9[C@H](C(=O)NC(C)(C)C)[C@H](C)NC(=O)[C@H]([C@@H](C)O)NC(=O)[C@H](CC(=O)O)NC(=O)[C@H](CC(C)C)NC%10=O)cc8)CC7)n6)nc5)CC4)cc3)c(c2)CNC(=O)[C@@H]2CCCN2[C@H](C(=O)NC(C)(C)C)[C@H](C)NC(=O)[C@H]([C@@H](C)O)NC(=O)[C@H](CC(=O)O)NC1=O` [Compound 466], 97 nM; as for `CC(C)C[C@@H]1NC(=O)c2ccc(-c3ccc(N4CCN(C(=O)c5nccnc5C(=O)N5CCN(c6ccc(-c7ccc8cc7CNC(=O)[C@@H]7CCCN7[C@H](C(=O)NC(C)(C)C)[C@H](C)NC(=O)[C@H]([C@@H](C)O)NC(=O)[C@H](CC(=O)O)NC(=O)[C@H](CC(C)C)NC8=O)cc6)CC5)CC4)cc3)c(c2)CNC(=O)[C@@H]2CCCN2[C@H](C(=O)NC(C)(C)C)[C@H](C)NC(=O)[C@H]([C@@H](C)O)NC(=O)[C@H](CC(=O)O)NC1=O` [Compound 467], 43 nM.
Still for that read-out and setting: then `CC(C)C[C@@H]1NC(=O)c2ccc(-c3ccc(N4CCN(c5ncc([N+](=O)[O-])c(N6CCN(c7ccc(-c8ccc9cc8CNC(=O)[C@@H]8CCCN8[C@H](C(=O)NC(C)(C)C)[C@H](C)NC(=O)[C@H]([C@@H](C)O)NC(=O)[C@H](CC(=O)O)NC(=O)[C@H](CC(C)C)NC9=O)cc7)CC6)n5)CC4)cc3)c(c2)CNC(=O)[C@@H]2CCCN2[C@H](C(=O)NC(C)(C)C)[C@H](C)NC(=O)[C@H]([C@@H](C)O)NC(=O)[C@H](CC(=O)O)NC1=O` [Compound 468], with 13 nM; and `CC(C)C[C@@H]1NC(=O)c2ccc(-c3ccc(N4CCN(C(=O)c5cc(-c6ccccc6)c(C(=O)N6CCN(c7ccc(-c8ccc9cc8CNC(=O)[C@@H]8CCCN8[C@H](C(=O)NC(C)(C)C)[C@H](C)NC(=O)[C@H]([C@@H](C)O)NC(=O)[C@H](CC(=O)O)NC(=O)[C@H](CC(C)C)NC9=O)cc7)CC6)cc5-c5ccccc5)CC4)cc3)c(c2)CNC(=O)[C@@H]2CCCN2[C@H](C(=O)NC(C)(C)C)[C@H](C)NC(=O)[C@H]([C@@H](C)O)NC(=O)[C@H](CC(=O)O)NC1=O` [Compound 469], with 5 nM.
Same read-out and setting: as for `CC(C)C[C@@H]1NC(=O)c2ccc(-c3ccc(N4CCN(C(=O)c5ccc(C(=O)N6CCN(c7ccc(-c8ccc9cc8CNC(=O)[C@@H]8CCCN8[C@H](C(=O)NC(C)(C)C)[C@H](C)NC(=O)[C@H]([C@@H](C)O)NC(=O)[C@H](CC(=O)O)NC(=O)[C@H](CC(C)C)NC9=O)cc7)CC6)s5)CC4)cc3)c(c2)CNC(=O)[C@@H]2CCCN2[C@H](C(=O)NC(C)(C)C)[C@H](C)NC(=O)[C@H]([C@@H](C)O)NC(=O)[C@H](CC(=O)O)NC1=O` [Compound 470], the figure is 17 nM.
With `CC(C)C[C@@H]1NC(=O)c2ccc(-c3ccc(N4CCN(C(=O)c5ccc(-c6ccc(C(=O)N7CCN(c8ccc(-c9ccc%10cc9CNC(=O)[C@@H]9CCCN9[C@H](C(=O)NC(C)(C)C)[C@H](C)NC(=O)[C@H]([C@@H](C)O)NC(=O)[C@H](CC(=O)O)NC(=O)[C@H](CC(C)C)NC%10=O)cc8)CC7)cc6)cc5)CC4)cc3)c(c2)CNC(=O)[C@@H]2CCCN2[C@H](C(=O)NC(C)(C)C)[C@H](C)NC(=O)[C@H]([C@@H](C)O)NC(=O)[C@H](CC(=O)O)NC1=O` [Compound 474], the IC50 under setting [1] worked out at 14 nM.
On the same count and under the same terms, as for `CC(C)C[C@@H]1NC(=O)c2ccc(-c3ccc(N4CCN(C(=O)c5cc(F)ccc5-c5ccc(F)cc5C(=O)N5CCN(c6ccc(-c7ccc8cc7CNC(=O)[C@@H]7CCCN7[C@H](C(=O)NC(C)(C)C)[C@H](C)NC(=O)[C@H]([C@@H](C)O)NC(=O)[C@H](CC(=O)O)NC(=O)[C@H](CC(C)C)NC8=O)cc6)CC5)CC4)cc3)c(c2)CNC(=O)[C@@H]2CCCN2[C@H](C(=O)NC(C)(C)C)[C@H](C)NC(=O)[C@H]([C@@H](C)O)NC(=O)[C@H](CC(=O)O)NC1=O` [Compound 475], the figure is 18 nM.
